# Experimental data: patent US20230013669A1, “Antibacterial Treatment Using a Cannabinoid and an Active Agent” (priority 2019, published 2023)
# Values joined by “and” are separate entries in the source; they are usually repeats but may differ in a detail not shown here. Equal values may be shown once. Read-outs that look alike come from different tables or passages of the source.
# Test system: Acinetobacter baumannii ATCC 19606 (GN_034)
# Test: Synergy of cannabidiol with cell-wall disrupting agent (CBD MIC in combination, FICI)
# Assay type: cell-based
# Conditions: for MIC: Acinetobacter baumannii
# Description: The compounds were stored short term at 4° C.
# Analysis was performed using Microsoft Excel.
smiles,measurement,setting,value
"C=C(C)C1CCC(C)=CC1c1c(O)cc(CCCCC)cc1O (centres unmarked) [Cannabidiol, 2-[3-methyl-6-(1-methylethenyl)-2-cyclohexen-1-yl]-5-pentyl-1,3-benzenediol]",FICI range,"Acinetobacter baumannii ATCC 19606, CBD with FADDI-287, MIC table (Table 95)",0.25-8
same,FICI range,"Acinetobacter baumannii ATCC 19606, CBD with FADDI-287, Synergy table (Table 97)",0.25-8^
same,FICI range,"Acinetobacter baumannii ATCC 19606, CBD with MCC_8980, MIC table (Table 99)",0.06-1.02
same,FICI range,"Acinetobacter baumannii ATCC 19606, CBD with MCC_8980, Synergy table (Table 101), listed as CBD",0.06-0.25 and 0.06-0.26
same,FICI range,"Acinetobacter baumannii ATCC 19606, CBD with Spero SPR206, Synergy table, listed as CBD",0.25-0.5 and 0.25
same,CBD MIC with MCC_8980,"Acinetobacter baumannii ATCC 19606, MCC_8980 at 8 μg/mL, listed as CBD",4 mg/L
same,CBD MIC with MCC_8980,"Acinetobacter baumannii ATCC 19606, MCC_8980 at 16 μg/mL, listed as CBD",2 mg/L
same,FICI,"Acinetobacter baumannii ATCC 19606, cannabidiol with FADDI-287 at 0.25 μg/mL, calculated using MIC of 256 μg/mL for cannabidiol",0.5001
same,FICI,"Acinetobacter baumannii ATCC 19606, cannabidiol with FADDI-287 at 0.5 μg/mL, calculated using MIC of 256 μg/mL for cannabidiol",1
same,FICI,"Acinetobacter baumannii ATCC 19606, cannabidiol with FADDI-287 at 1 μg/mL, calculated using MIC of 256 μg/mL for cannabidiol",2
same,FICI,"Acinetobacter baumannii ATCC 19606, cannabidiol with FADDI-287 at 2 μg/mL, calculated using MIC of 256 μg/mL for cannabidiol",4
same,FICI,"Acinetobacter baumannii ATCC 19606, cannabidiol with FADDI-287 at 4 μg/mL, calculated using MIC of 256 μg/mL for cannabidiol",8
same,FICI,"Acinetobacter baumannii ATCC 19606, cannabidiol with MCC_8980 at 1 μg/mL, calculated using MIC of 256 μg/mL for cannabidiol",1.016
same,FICI,"Acinetobacter baumannii ATCC 19606, cannabidiol with MCC_8980 at 2 μg/mL, calculated using MIC of 256 μg/mL for cannabidiol",0.0625
same,FICI,"Acinetobacter baumannii ATCC 19606, cannabidiol with MCC_8980 at 4 μg/mL, calculated using MIC of 256 μg/mL for cannabidiol",0.09375
same,FICI,"Acinetobacter baumannii ATCC 19606, cannabidiol with MCC_8980 at 8 μg/mL, calculated using MIC of 256 μg/mL for cannabidiol",0.1328 and 0.1406
same,FICI,"Acinetobacter baumannii ATCC 19606, cannabidiol with MCC_8980 at 16 μg/mL, calculated using MIC of 256 μg/mL for cannabidiol",0.2578
same,FICI,"Acinetobacter baumannii ATCC 19606, cannabidiol with SPR741 at 1 μg/mL, calculated using MIC of 256 μg/mL for cannabidiol",1.016
same,FICI,"Acinetobacter baumannii ATCC 19606, cannabidiol with SPR741 at 2 μg/mL, calculated using MIC of 256 μg/mL for cannabidiol",1.031
same,FICI,"Acinetobacter baumannii ATCC 19606, cannabidiol with SPR741 at 2 μg/mL, calculated using MIC of 256 μg/mL for cannabidiol, listed as cannabidiol",1.016
same,MIC,"ATCC19606, Acinetobacter baumannii ATCC 19606, FADDI-287 at 0.25 μg/mL, read-out: CBD MIC with FADDI-287",0.015 mg/L
same,MIC,"ATCC19606, Acinetobacter baumannii ATCC 19606, FADDI-287 at 0.5 μg/mL, read-out: CBD MIC with FADDI-287",0.001 mg/L
same,MIC,"ATCC19606, Acinetobacter baumannii ATCC 19606, FADDI-287 at 1 μg/mL, read-out: CBD MIC with FADDI-287",0.001 mg/L
same,MIC,"ATCC19606, Acinetobacter baumannii ATCC 19606, FADDI-287 at 2 μg/mL, read-out: CBD MIC with FADDI-287",0.001 mg/L
same,MIC,"ATCC19606, Acinetobacter baumannii ATCC 19606, FADDI-287 at 4 μg/mL, read-out: CBD MIC with FADDI-287",0.001 mg/L
same,MIC,"ATCC19606, Acinetobacter baumannii ATCC 19606, MCC_8980 at 2 μg/mL, read-out: CBD MIC with MCC_8980",8 mg/L
same,MIC,"ATCC19606, Acinetobacter baumannii ATCC 19606, MCC_8980 at 4 μg/mL, read-out: CBD MIC with MCC_8980",8 mg/L
same,MIC,"ATCC19606, Acinetobacter baumannii ATCC 19606, MCC_8980 at 8 μg/mL, read-out: CBD MIC with MCC_8980",2 mg/L
same,MIC,"ATCC19606, Acinetobacter baumannii ATCC 19606, MCC_8980 at 16 μg/mL, read-out: CBD MIC with MCC_8980",1 mg/L
same,MIC,"ATCC19606, Acinetobacter baumannii ATCC 19606, Spero SPR206 at 2 μg/mL, read-out: CBD MIC with Spero SPR206",0.001 mg/L
same,MIC,"ATCC19606, Acinetobacter baumannii ATCC 19606, Spero SPR206 at 4 μg/mL, read-out: CBD MIC with Spero SPR206",0.001 mg/L
same,MIC,"ATCC19606, MCC_6442 at 1 μg/mL, Acinetobacter baumannii ATCC 19606, read-out: CBD MIC with MCC_6442",16 mg/L
same,MIC,"ATCC19606, MCC_6442 at 2 μg/mL, Acinetobacter baumannii ATCC 19606, read-out: CBD MIC with MCC_6442",1 mg/L
same,MIC,"ATCC19606, MCC_6442 at 4 μg/mL, Acinetobacter baumannii ATCC 19606, read-out: CBD MIC with MCC_6442",0.5 mg/L
same,MIC,"ATCC19606, Octapeptin C4 at 2 μg/mL, read-out: CBD MIC with Octapeptin C4",8 mg/L
same,MIC,"ATCC19606, Octapeptin C4 at 4 μg/mL, read-out: CBD MIC with Octapeptin C4",2 mg/L
same,MIC,"ATCC19606, Spero SPR206 at 0.25 μg/mL, 1st of 3 experiments, read-out: CBD MIC with Spero SPR206",0.001 mg/L
same,MIC,"ATCC19606, Spero SPR206 at 0.25 μg/mL, 3rd of 3 experiments, read-out: CBD MIC with Spero SPR206",> 256 mg/L
same,MIC,"ATCC19606, Spero SPR206 at 0.5 μg/mL, 1st of 3 experiments, read-out: CBD MIC with Spero SPR206",0.001 mg/L
same,MIC,"ATCC19606, Spero SPR206 at 0.5 μg/mL, 3rd of 3 experiments, read-out: CBD MIC with Spero SPR206",> 256 mg/L
same,MIC,"ATCC19606, Spero SPR206 at 1 μg/mL, 1st of 3 experiments, read-out: CBD MIC with Spero SPR206",0.001 mg/L
same,MIC,"ATCC19606, Spero SPR206 at 1 μg/mL, 3rd of 3 experiments, read-out: CBD MIC with Spero SPR206",1 mg/L
same,MIC,"ATCC19606, Spero SPR206 at 2 μg/mL, 1st of 3 experiments, read-out: CBD MIC with Spero SPR206",0.001 mg/L
same,MIC,"ATCC19606, Spero SPR206 at 2 μg/mL, 3rd of 3 experiments, read-out: CBD MIC with Spero SPR206",0.001 mg/L
same,MIC,"ATCC19606, Spero SPR206 at 4 μg/mL, 1st of 3 experiments, read-out: CBD MIC with Spero SPR206",0.001 mg/L
same,MIC,"ATCC19606, Spero SPR206 at 4 μg/mL, 3rd of 3 experiments, read-out: CBD MIC with Spero SPR206",0.001 mg/L
same,CBD MIC with Aztreonam,Aztreonam at 4 μg/mL,32 mg/L
same,CBD MIC with Aztreonam,Aztreonam at 8 μg/mL,32 mg/L
same,CBD MIC with Aztreonam,Aztreonam at 16 μg/mL,0.001 mg/L
same,FICI,"CBD with Aztreonam at 0.5 μg/mL, CBD MIC taken as 256 μg/mL",1.016
same,FICI,"CBD with Aztreonam at 1 μg/mL, CBD MIC taken as 256 μg/mL",1.031
same,FICI,"CBD with Aztreonam at 2 μg/mL, CBD MIC taken as 256 μg/mL",1.0625
same,FICI,"CBD with Aztreonam at 4 μg/mL, CBD MIC taken as 256 μg/mL",0.25
